# Results taken from patent US7417025B2, “Use of poly-α2,8-sialic acid mimetic peptides to modulate NCAM functions” (Centre National de la Recherche Scientifique, priority 2002, dated 2008).
# Legend:
# mAb 735 = test: Competitive ELISA of biotinylated peptide-BSA conjugates on anti-PSA mAb; type: binding; conditions: for Binding of peptide to mAb 735 in competitive ELISA (percentage of binding): biotinylated peptide-BSA conjugate
# Excerpt: • mAb 735 and 30H12 • MaxiSorp™ plates (NUNC) for coating the antibody: ELISA plates • microtiter plates (NUNC) for peptide dilution: dilution plates • Biotinylated peptide-BSA conjugates prepared as above described • Extravidin alkaline phosphatase-avidin conjugate (SIGMA E2636) • p-nitrophenyl-phosphatase alkaline substrate (SIGMA 104-105) 2.1.2) Buffers • PBS pH 7.4 • Blocking solution: 0.5% BSA in PBS • TBS • TBST: TBS containing 0.05% Tween 20 • Extravidin alkaline phosphatase-avidin conjugate solution: 1/5000 in TBST • Alkaline phosphatase substrate solution; 1 tablet in 5 ml 50 mM NaHCO3, 1 mM MgCl2 solution, […]) Method
# (§1) Maxisorp™ plate wells were coated with 100 μl mAb solution (25 μg/ml) for 2 h at room temperature. The control wells of the ELISA plates were only coated with the blocking solution. In parallel, the peptide-BSA conjugate dilution plates were blocked with 200 μl blocking solution for 2 h. The antibody coated wells and the control wells were blocked with 200 μl blocking solution for 1 h. In parallel the peptide-BSA conjugate dilution plates were washed 6 times with TBST and 120 μl TBST was added to the wells. An appropriate volume of peptide-BSA conjugate solution was added to the first well and the volume adjusted to 140 μl with TBST. The peptide-BSA conjugate in well one was diluted in the ratio 1/7 by taking 20 μl out of the first well and transferring into the second also to achieve the total volume of 140 μl. This was repeated for the remaining wells. The peptide-BSA conjugate dilutions for the control wells were done the same way. The blocked ELISA plates were washed 6 times with TBST and the peptide-BSA conjugate dilutions or 100 μl of the mixed competitor solution was added to the wells. After incubation for 1 h, the wells were washed 10 times with TBST and 100 μl of the alkaline phosphatase substrate solution was added to the wells. The plates were read out after 10 to 60 min using a microplate reader at 405 nm.
# (§2) The specificity of peptide p21 (SEQ ID NO: 1) was investigated in a competition ELISA using biotinylated p21-BSA conjugate and a randomized variant of p21 (p22) conjugate as a control. The results presented in Tables X and XI are expressed as percentage of binding by comparison with peptide p21 at the highest concentration (9.45 10^-5 M) which corresponds to 100% binding.
# BSA = BSA (Bos taurus, UniProt P02769); test: Peptide-BSA conjugate ELISA, control wells coated only with blocking solution (BSA); type: binding; conditions: biotinylated peptide-BSA conjugate, BSA-blocked wells, no mAb
# Sequence of BSA (P02769 25-607): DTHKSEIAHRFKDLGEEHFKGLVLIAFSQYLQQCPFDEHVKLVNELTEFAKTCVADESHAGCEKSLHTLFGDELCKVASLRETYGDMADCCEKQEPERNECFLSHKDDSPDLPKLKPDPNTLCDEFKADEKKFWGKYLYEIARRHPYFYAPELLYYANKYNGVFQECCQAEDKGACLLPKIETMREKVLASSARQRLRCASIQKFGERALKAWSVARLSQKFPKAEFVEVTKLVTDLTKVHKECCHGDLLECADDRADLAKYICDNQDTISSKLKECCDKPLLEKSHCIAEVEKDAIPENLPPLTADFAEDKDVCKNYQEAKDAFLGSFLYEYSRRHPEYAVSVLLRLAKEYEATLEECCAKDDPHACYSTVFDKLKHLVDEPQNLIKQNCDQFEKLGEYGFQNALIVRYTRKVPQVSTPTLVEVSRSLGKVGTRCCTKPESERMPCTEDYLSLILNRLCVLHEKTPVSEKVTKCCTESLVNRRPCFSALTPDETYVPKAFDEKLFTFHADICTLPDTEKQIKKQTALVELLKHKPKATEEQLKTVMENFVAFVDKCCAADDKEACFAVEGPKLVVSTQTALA
# Excerpt: • mAb 735 and 30H12 • MaxiSorp™ plates (NUNC) for coating the antibody: ELISA plates • microtiter plates (NUNC) for peptide dilution: dilution plates • Biotinylated peptide-BSA conjugates prepared as above described • Extravidin alkaline phosphatase-avidin conjugate (SIGMA E2636) • p-nitrophenyl-phosphatase alkaline substrate (SIGMA 104-105) 2.1.2) Buffers • PBS pH 7.4 • Blocking solution: 0.5% BSA in PBS • TBS • TBST: TBS containing 0.05% Tween 20 • Extravidin alkaline phosphatase-avidin conjugate solution: 1/5000 in TBST • Alkaline phosphatase substrate solution; 1 tablet in 5 ml 50 mM NaHCO3, 1 mM MgCl2 solution, pH 9.6. • mixed competitor solution: 1 mM colominic acid with a peptide-BSA conjugate gradient in TBST 2.1.3) Method
# as §1, §2
# [1] = peptide-BSA conjugate, in words
sequence,measurement,setting,value
"PDHIFVFSPDLP [p22, reference compound]",Binding of peptide to mAb 735 in competitive ELISA (percentage of binding),"mAb 735; peptide 1.62 10^−9 M, + chondroitin sulfate C",2 ± 0%
same,Binding of peptide to mAb 735 in competitive ELISA (percentage of binding),"mAb 735; peptide 1.62 10^−9 M, + colominic acid 1 mM",0 ± 0%
same,Binding of peptide to mAb 735 in competitive ELISA (percentage of binding),"mAb 735; peptide 1.62 10^−9 M, no competitor",0 ± 0%
same,Binding of peptide to mAb 735 in competitive ELISA (percentage of binding),"mAb 735; peptide 1.67 10^−5 M, + chondroitin sulfate C",8 ± 1%
same,Binding of peptide to mAb 735 in competitive ELISA (percentage of binding),"mAb 735; peptide 1.67 10^−5 M, + colominic acid 1 mM",5 ± 0%
same,Binding of peptide to mAb 735 in competitive ELISA (percentage of binding),"mAb 735; peptide 1.67 10^−5 M, no competitor",9 ± 0%
same,Binding of peptide to mAb 735 in competitive ELISA (percentage of binding),"mAb 735; peptide 2.86 10^−9 M, + chondroitin sulfate C",2 ± 0%
same,Binding of peptide to mAb 735 in competitive ELISA (percentage of binding),"mAb 735; peptide 2.86 10^−9 M, + colominic acid 1 mM",0 ± 0%
same,Binding of peptide to mAb 735 in competitive ELISA (percentage of binding),"mAb 735; peptide 2.86 10^−9 M, no competitor",0 ± 0%
same,Binding of peptide to mAb 735 in competitive ELISA (percentage of binding),"mAb 735; peptide 2.94 10^−6 M, + chondroitin sulfate C",3 ± 1%
same,Binding of peptide to mAb 735 in competitive ELISA (percentage of binding),"mAb 735; peptide 2.94 10^−6 M, + colominic acid 1 mM",0 ± 0%
same,Binding of peptide to mAb 735 in competitive ELISA (percentage of binding),"mAb 735; peptide 2.94 10^−6 M, no competitor",1 ± 0%
same,Binding of peptide to mAb 735 in competitive ELISA (percentage of binding),"mAb 735; peptide 5.04 10^−10 M, + chondroitin sulfate C",2 ± 0%
same,Binding of peptide to mAb 735 in competitive ELISA (percentage of binding),"mAb 735; peptide 5.04 10^−10 M, + colominic acid 1 mM",0 ± 0%
same,Binding of peptide to mAb 735 in competitive ELISA (percentage of binding),"mAb 735; peptide 5.04 10^−10 M, no competitor",0 ± 0%
same,Binding of peptide to mAb 735 in competitive ELISA (percentage of binding),"mAb 735; peptide 5.20 10^−7 M, + chondroitin sulfate C",2 ± 0%
same,Binding of peptide to mAb 735 in competitive ELISA (percentage of binding),"mAb 735; peptide 5.20 10^−7 M, + colominic acid 1 mM",0 ± 0%
same,Binding of peptide to mAb 735 in competitive ELISA (percentage of binding),"mAb 735; peptide 5.20 10^−7 M, no competitor",0 ± 0%
same,Binding of peptide to mAb 735 in competitive ELISA (percentage of binding),"mAb 735; peptide 8.89 10^−11 M, + chondroitin sulfate C",2 ± 0%
same,Binding of peptide to mAb 735 in competitive ELISA (percentage of binding),"mAb 735; peptide 8.89 10^−11 M, + colominic acid 1 mM",0 ± 0%
same,Binding of peptide to mAb 735 in competitive ELISA (percentage of binding),"mAb 735; peptide 8.89 10^−11 M, no competitor",0 ± 0%
same,Binding of peptide to mAb 735 in competitive ELISA (percentage of binding),"mAb 735; peptide 9.27 10^−8 M, + chondroitin sulfate C",2 ± 1%
same,Binding of peptide to mAb 735 in competitive ELISA (percentage of binding),"mAb 735; peptide 9.27 10^−8 M, + colominic acid 1 mM",0 ± 0%
same,Binding of peptide to mAb 735 in competitive ELISA (percentage of binding),"mAb 735; peptide 9.27 10^−8 M, no competitor",0 ± 0%
same,Binding of peptide to mAb 735 in competitive ELISA (percentage of binding),"mAb 735; peptide 9.45 10^−5 M, + chondroitin sulfate C",29 ± 0%
same,Binding of peptide to mAb 735 in competitive ELISA (percentage of binding),"mAb 735; peptide 9.45 10^−5 M, + colominic acid 1 mM",27 ± 0%
same,Binding of peptide to mAb 735 in competitive ELISA (percentage of binding),"mAb 735; peptide 9.45 10^−5 M, no competitor",32 ± 1%
same,Binding of peptide to mAb 735,mAb 735; [1],no binding
same,Effect of colominic acid or chondroitin sulfate C on binding to mAb 735,mAb 735; [1],no differences were observed
same,Binding of peptide to BSA control wells (percentage of binding),BSA; peptide 1.62 10^−9 M,0 ± 0%
same,Binding of peptide to BSA control wells (percentage of binding),BSA; peptide 1.67 10^−5 M,1 ± 1%
same,Binding of peptide to BSA control wells (percentage of binding),BSA; peptide 2.86 10^−9 M,0 ± 0%
same,Binding of peptide to BSA control wells (percentage of binding),BSA; peptide 2.94 10^−6 M,0 ± 0%
same,Binding of peptide to BSA control wells (percentage of binding),BSA; peptide 5.04 10^−10 M,0 ± 0%
same,Binding of peptide to BSA control wells (percentage of binding),BSA; peptide 5.20 10^−7 M,0 ± 0%
same,Binding of peptide to BSA control wells (percentage of binding),BSA; peptide 8.89 10^−11 M,0 ± 0%
same,Binding of peptide to BSA control wells (percentage of binding),BSA; peptide 9.27 10^−8 M,0 ± 0%
same,Binding of peptide to BSA control wells (percentage of binding),BSA; peptide 9.45 10^−5 M,3 ± 1%
